Results from patent US5428048A, “Aryl-N-hydroxyureas as inhibitors of 5-lipoxygenase and anto-arteriosclerotic agents” (American Home Products Corporation, priority 1993, dated 1995).

How the values were obtained:
LTB4 Synthesis = assay: Reverse Passive Arthus Reaction (pleurisy, LTB4 in pleural exudate); format: in vivo, male Lewis rats
Procedure: 3. Reverse Passive Arthus Reaction
A reverse passive Arthus reaction is induced in the pleural cavity of male Lewis rats (150°-200 g; fasted overnight prior to use) by the intravenous administration of bovine serum albumin (BSA; 4 mg/0.2 ml) followed 30 minutes later by the injection of rabbit anti-BSA (1 mg/0.2 ml; lyophilized IgG fraction; Organon Teknika, West Chester, Pa.) into the right pleural space under halothane anesthesia. Drugs or vehicle (0.5% Tween-80) control are administered orally in a volume of 1 ml/100 g body weight at 1 hour prior to the anti-BSA. Animals are sacrificed at either the time of peak eicosanoid production (i.e. 5 minutes after anti-BSA for immunoreactive TxB2, 10 minutes for immunoreactive LTB4, 20 minutes for immunoreactive LTC4) or at the time of peak neutrophil infiltration (4 hours after anti-BSA) by CO2 inhalation. The pleural cavity is then exposed, the fluid exudate removed by gentle vacuum aspiration and the volume of exudate is recorded. For the determination of cellular infiltration, the pleural cavity is rinsed with 3 ml of 0.1% EDTA in sterile saline, and the recovered wash is pooled with the exudate. Cell number is determined on a model ZBI Coulter counter. For determination of eicosanoid production, undiluted pleural exudate is microfuged and the supernatant is extracted with ethanol (8-10 times volume). Extracts are either stored at -20° C., or are evaporated to dryness under a stream of N2 and reconstituted in radioimmunoassay (RIA) buffer.
Eicosanoids are quantitated by RIA according to the procedure specified by the RIA kit manufacturer (Advanced Magnetics, Cambridge, MA). Briefly, 100 μl of ^3 H-labeled eicosanoid and 100 μl of specific antibody ,are sequentially added to 100 μl of extracted pleural exudate in BGG-phosphate buffer which contains 0.01M phosphate, 0.1% bovine gamma globulin and 0.1% sodium azide at pH 7.0. Antibody-bound eicosanoid is separated from unbound eicosanoid by the addition of 750 μl of dextran (0.4%)-coated charcoal (Norit A) containing 0.1% sodium azide. The mixture is centrifuged at 2000 RPM at 5° C. for 15 minutes to pellet the charcoal and adsorbed unbound eicosanoid. Antibody-bound labeled eicosanoid is quantitated by counting in a liquid scintillation counter, and is correlated to concentration by a standard curve.

[1] = test system: LT-dependent bronchoconstriction; assay: Inhibition of Bronchoconstriction in Guinea Pigs Induced by Exogenously Administered Antigen; format: in vivo, Male guinea pigs
Procedure: 4. Inhibition of Brochoconstriction in Guinea Pigs Induced by Exogenously Administered Antigen
Male guinea pigs (Charles River, Wilmington, Mass.) were sensitized 3-4 weeks prior to antigen challenge by administration of 2 i.m. injections of ovalbumin, 1 into each hind limb (35 mg total). Sensitized animals (500-600 g) were fasted overnight prior to experimentation. Conscious animals were then dosed p.o. with drug or vehicle alone (0.5% Tween 80 in H2 O) at the indicated times prior to antigen challenge, or anesthetized animals were dosed i.v. with drug or vehicle alone (DMSO) 5 min prior to antigen challenge. Animals were anesthetized by urethane (2.8 g/kg i.p.). A carotid artery and jugular vein were cannulated to allow for the monitoring of blood pressure and the administration of drugs, respectively. The trachea was then cannulated and connected to a Harvard Apparatus rodent ventilator (S. Natick, Mass.). Spontaneous respiration was abolished by the administration of succinylcholine (2.5 mg/kg i.v.). The animals were then ventilated with room air at a rate of 65 breaths per min. Airway inflation pressure was measured using a Statham pressure transducer (Gould Instruments, Cleveland, Ohio) connected to the tracheal cannula via a side-arm and recorded on a Grass Instruments recorder (Quincy, Mass.). The tidal volume (approximately 10 cc/kg) was adjusted to give a baseline inflation pressure of 8-10 cm H2 O at end inspiration. Animals were then allowed 20 min to stabilize.
Following the stabilization period, animals were given i.v. injections of pyrilamine (5 mg/kg), propranolol (0.1 mg/kg) and indomethacin (10 mg/kg) at 15, 10 and 5 min, respectively, prior to antigen challenge. This pretreatment results in an LT-dependent bronchoconstriction following antigert challenge, which was accomplished by i.v. administration of ovalbumin (10 mg/kg). Only one bronchoconstriction per animal was induced. End-inspiratory inflation pressure (in cm H2 O over baseline) was measured at 5 min post-antigen challenge. A mean value and standard error for the % inhibition of control bronchoconstriction in each drug-treated group was then calculated.

| SMILES | % Inhibition LTB4 Synthesis (LTB4 Synthesis; 25 mg/kg p.o.) [%] | Bronchoconstriction % Inhibition ([1]; 20 mg/kg i.v.) [%] | Bronchoconstriction % Inhibition ([1]; 25 mg/kg aerosol) [%] | Bronchoconstriction % Inhibition ([1]; 25 mg/kg p.o.) [%] | % Inhibition LTB4 Synthesis (LTB4 Synthesis; 10 mg/kg p.o.) [%] | Bronchoconstriction % Inhibition ([1]; 10 mg/kg i.v.) [%] | Bronchoconstriction % Inhibition ([1]; 10 mg/kg p.o.) [%] |
| --- | --- | --- | --- | --- | --- | --- | --- |
| Cc1oc(-c2ccccc2)nc1CCOc1ccc(CN(O)C(N)=O)cc1 [Example 1] | 35 | 66 | 67 | 25 |  |  |  |
| Cc1oc(-c2ccccc2)nc1CCOc1ccc(C(C)N(O)C(N)=O)cc1 (stereo not shown) [Example 4] |  |  | 51 |  |  |  |  |
| Cc1oc(-c2ccc(C(F)(F)F)cc2)nc1CCOc1ccc(CN(O)C(N)=O)cc1 [Example 13, 1-Hydroxy-1-[4-[2-[5-methyl-2(4-trifluoromethyl-phenyl)-oxazol-4-yl]-ethoxy]benzyl]-urea] |  | 23 |  |  | 91 |  |  |
| NC(=O)N(O)Cc1ccc(OCCc2noc(-c3ccccc3)n2)cc1 [Example 21, 1-hydroxy-1-[4-[2-(5-phenyl-[1,2,4]-oxadiazol-3-yl)-ethoxy]-benzyl]-urea] | 19 |  |  |  |  | 58 | 34 |
